Assay results as given in patent US20240025912A1 (Merck Sharp & Dohme LLC, priority 2022, published 2024).

These molecules were tested against GST-RIPK1 (recombinant GST-RIPK1 kinase domain (residues 1-327)) (Homo sapiens (Human), UniProt Q13546) (assay: RIPK1-ADP-Glo Enzymatic Assay). Details: 25 nM GST-RIPK1, 300 μM ATP, 3 μM dephosphorylated-MBP, 30 min pre-incubation, 150 min reaction.
Chain of GST-RIPK1 (recombinant GST-RIPK1 kinase domain (residues 1-327)) (Q13546 1-327): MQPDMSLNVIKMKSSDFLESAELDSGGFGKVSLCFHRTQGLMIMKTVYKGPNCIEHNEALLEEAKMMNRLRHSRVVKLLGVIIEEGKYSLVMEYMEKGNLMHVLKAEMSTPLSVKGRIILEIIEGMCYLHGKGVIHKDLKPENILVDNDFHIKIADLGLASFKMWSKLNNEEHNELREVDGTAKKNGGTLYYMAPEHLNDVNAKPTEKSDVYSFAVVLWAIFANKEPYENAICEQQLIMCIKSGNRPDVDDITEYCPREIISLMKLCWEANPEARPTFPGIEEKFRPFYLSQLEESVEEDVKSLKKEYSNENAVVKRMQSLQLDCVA
Type: biochemical
Description: The enzymatic activity of RIPK1 is measured using an assay derived from ADP-Glo kit (TMPromega), which provides a luminescent-based ADP detection system. Specifically, the ADP generated by RIPK1 kinase is proportionally detected as luminescent signals in a homogenous fashion. In this context, the assessment of the inhibitory effect of small molecules (EC50) is measured by the effectiveness of the compounds to inhibit the ATP to ADP conversion by RIPK1.
In this assay, the potency (EC50) of each compound was determined from a ten-point (1:3 serial dilution; top compound concentration of 100000 nM) titration curve using the following outlined procedure. To each well of a white ProxiPlus 384 well-plate, 30 nL of compound (1% DMSO in final assay volume of 3 μL) was dispensed, followed by the addition of 2 μL of 1× assay buffer (25 mM Hepes 7.3, 20 mM MgCl2, 50 mM NaCl, 1 mM DTT, 0.005% Tween20, and 0.02% BSA) containing 37.5 nM of GST-RIPK1 (recombinant GST-RIPK1 kinase domain (residues 1-327) enzyme produced from baculovirus-transfected Sf21 cells: MW 62 kDa). Plates were placed in an ambient temperature humidified chamber for a 30 min pre-incubation with compound. Subsequently, each reaction was initiated by the addition of 1 μL 1× assay buffer containing 900 μM ATP and 3 μM dephosphorylated-MBP substrate. The final reaction in each well of 3 μL consists of 25 nM of GST-RIPK1, 300 μM ATP, and 3 μM dephosphorylated-MBP. Kinase reactions were allowed to proceed for 150 min prior to adding ADP-Glo reagents per Promega's outlined kit protocol. Dose-response curves were generated by plotting percent effect (% product conversion; Y-axis) vs. Log 10 compound concentrations (X-axis). EC50 values were calculated using a non-linear regression, four-parameters sigmoidal dose-response model.
For `N#CC12CC(n3nc4n(c3=O)C(c3cnccn3)CC4)(C1)C2` (racemic) [Compound 4-1, (±)-3-(3-oxo-5-(pyrazin-2-yl)-6,7-dihydro-3H-pyrrolo[2,1-c][1,2,4]triazol-2(5H)-yl)bicyclo[1.1.1]pentane-1-carbonitrile], the EC50 was 385 nM. `COc1cc(F)cc(C2CCc3nn(C45CC(F)(C4)C5)c(=O)n32)c1` (racemic) [Compound 4-2, (±)-5-(3-fluoro-5-methoxyphenyl)-2-(3-fluorobicyclo[1.1.1]pentan-1-yl)-2,5,6,7-tetrahydro-3H-pyrrolo[2,1-c][1,2,4]triazol-3-one] showed an EC50 of 259 nM. `N#Cc1cccc(C2CCc3nn(C45CC(F)(C4)C5)c(=O)n32)c1` (racemic) [Compound 4-3, (±)-3-[2-(3-fluorobicyclo[1.1.1]pentan-1-yl)-3-oxo-2,5,6,7-tetrahydro-3H-pyrrolo[2,1-c][1,2,4]triazol-5-yl]benzonitrile] was tested, and the EC50 was 426 nM. With `C#Cc1cccc(C2CCc3nn(C45CC(F)(C4)C5)c(=O)n32)c1` (racemic) [Compound 4-4, (±)-5-(3-ethynylphenyl)-2-(3-fluorobicyclo[1.1.1]pentan-1-yl)-2,5,6,7-tetrahydro-3H-pyrrolo[2,1-c][1,2,4]triazol-3-one] the EC50 was 495 nM. Work on `O=c1n(C23CC(F)(C2)C3)nc2n1C(c1cccc(F)c1F)CC2` (racemic) [Compound 4-5, (±)-5-(2,3-difluorophenyl)-2-(3-fluorobicyclo[1.1.1]pentan-1-yl)-2,5,6,7-tetrahydro-3H-pyrrolo[2,1-c][1,2,4]triazol-3-one] yielded an EC50 of 53.8 nM. `Cc1cc(F)cc(C2CCc3nn(C45CC(F)(C4)C5)c(=O)n32)c1` (racemic) [Compound 4-6, (±)-2-(3-fluorobicyclo[1.1.1]pentan-1-yl)-5-(3-fluoro-5-methylphenyl)-2,5,6,7-tetrahydro-3H-pyrrolo[2,1-c][1,2,4]triazol-3-one] gave an EC50 of 44.1 nM. Work on `CC1Cc2nn(C34CC(C#N)(C3)C4)c(=O)n2C1c1cc(F)cc(F)c1` (single isomer, unassigned) [Compound 1-52, 3-[5-(S or R)-(3,5-difluorophenyl)-6-(S or R)-methyl-3-oxo-6,7-dihydro-3H-pyrrolo[2,1-c][1,2,4]triazol-2(5H)-yl]bicyclo[1.1.1]pentane-1-carbonitrile] yielded an EC50 of 601 nM. `N#CC12CC(n3nc4n(c3=O)C(C3CCCC3)CC4)(C1)C2` (single isomer, unassigned) [Compound 1-54, 3-(5-(S or R)-cyclopentyl-3-oxo-6,7-dihydro-3H-pyrrolo[2,1-c][1,2,4]triazol-2(5H)-yl)bicyclo[1.1.1]pentane-1-carbonitrile] gave an EC50 of 340 nM. In the case of `N#CC12CC(n3nc4n(c3=O)C(C3CCCCC3)CC4)(C1)C2` (single isomer, unassigned) [Compound 1-55, 3-(5-(S or R)-cyclohexyl-3-oxo-6,7-dihydro-3H-pyrrolo[2,1-c][1,2,4]triazol-2(5H)-yl)bicyclo[1.1.1]pentane-1-carbonitrile], the EC50 is reported as 103 nM. In the case of `O=c1n(C23CC(F)(C2)C3)nc2n1[C@H](c1cc(F)cc(F)c1)CC2F` (single isomer, unassigned) [Compound 6-1, (5S)-5-(3,5-difluorophenyl)-7-(S or R)-fluoro-2-(3-fluorobicyclo[1.1.1]pentan-1-yl)-2,5,6,7-tetrahydro-3H-pyrrolo[2,1-c][1,2,4]triazol-3-one], the EC50 is reported as 116 nM. For `O=c1n(C23CC(F)(C2)C3)nc2n1[C@H](c1cc(F)cc(F)c1)CC2F` (single isomer, unassigned) [Compound 6-2, (5S)-5-(3,5-difluorophenyl)-7-(S or R)-fluoro-2-(3-fluorobicyclo[1.1.1]pentan-1-yl)-2,5,6,7-tetrahydro-3H-pyrrolo[2,1-c][1,2,4]triazol-3-one], the EC50 was 18.4 nM. With `O=c1n(C23CC(F)(C2)C3)nc2n1[C@H](c1ccccc1)CC2F` (single isomer, unassigned) [Compound 6-3, (5S)-7-(S or R)-fluoro-2-(3-fluorobicyclo[1.1.1]pentan-1-yl)-5-phenyl-2,5,6,7-tetrahydro-3H-pyrrolo[2,1-c][1,2,4]triazol-3-one] the EC50 was 157 nM. Molecule `O=c1n(C23CC(F)(C2)C3)nc2n1[C@H](c1ccccc1)CC2F` (single isomer, unassigned) [Compound 6-4, (5S)-7-(S or R)-fluoro-2-(3-fluorobicyclo[1.1.1]pentan-1-yl)-5-phenyl-2,5,6,7-tetrahydro-3H-pyrrolo[2,1-c][1,2,4]triazol-3-one] has an EC50 of 21.9 nM. With `N#CC12CC(n3nc4n(c3=O)[C@H](c3cc(F)cc(F)c3)CC4F)(C1)C2` (single isomer, unassigned) [Compound 6-5, 3-[(5S)-5-(3,5-difluorophenyl)-7-(S or R)-fluoro-3-oxo-6,7-dihydro-3H-pyrrolo[2,1-c][1,2,4]triazol-2(5H)-yl]bicyclo[1.1.1]pentane-1-carbonitrile] the EC50 was 274 nM. Work on `N#CC12CC(n3nc4n(c3=O)[C@H](c3cc(F)cc(F)c3)CC4F)(C1)C2` (single isomer, unassigned) [Compound 6-6, 3-[(5S)-5-(3,5-difluorophenyl)-7-(S or R)-fluoro-3-oxo-6,7-dihydro-3H-pyrrolo[2,1-c][1,2,4]triazol-2(5H)-yl]bicyclo[1.1.1]pentane-1-carbonitrile] yielded an EC50 of 20.5 nM. `N#CC12CC(n3nc4n(c3=O)[C@H](c3ccccc3)CC4F)(C1)C2` (single isomer, unassigned) [Compound 6-7, 3-[(5S)-7-(S or R)-fluoro-3-oxo-5-phenyl-6,7-dihydro-3H-pyrrolo[2,1-c][1,2,4]triazol-2(5H)-yl]bicyclo[1.1.1]pentane-1-carbonitrile] was tested, and the EC50 was 505 nM. Molecule `N#CC12CC(n3nc4n(c3=O)[C@H](c3ccccc3)CC4F)(C1)C2` (single isomer, unassigned) [Compound 6-8, 3-[(5S)-7-(S or R)-fluoro-3-oxo-5-phenyl-6,7-dihydro-3H-pyrrolo[2,1-c][1,2,4]triazol-2(5H)-yl]bicyclo[1.1.1]pentane-1-carbonitrile] has an EC50 of 21.8 nM. For `N#CC12CC(n3nc4n(c3=O)[C@H](c3ccccc3F)CC4F)(C1)C2` (single isomer, unassigned) [Compound 6-9, 3-[(5S)-7-(S or R)-fluoro-5-(2-fluorophenyl)-3-oxo-6,7-dihydro-3H-pyrrolo[2,1-c][1,2,4]triazol-2(5H)-yl]bicyclo[1.1.1]pentane-1-carbonitrile], the EC50 was 68.9 nM. `N#CC12CC(n3nc4n(c3=O)[C@H](c3ccccc3F)CC4F)(C1)C2` (single isomer, unassigned) [Compound 6-10, 3-[(5S)-7-(S or R)-fluoro-5-(2-fluorophenyl)-3-oxo-6,7-dihydro-3H-pyrrolo[2,1-c][1,2,4]triazol-2(5H)-yl]bicyclo[1.1.1]pentane-1-carbonitrile] gave an EC50 of 18.1 nM. `O=c1n(C23CCC(CC2)C3)nc2n1[C@H](c1ccccc1)CC2` [Compound 1-1, (5S)-2-(bicyclo[2.2.1]heptan-1-yl)-5-phenyl-2,5,6,7-tetrahydro-3H-pyrrolo[2,1-c][1,2,4]triazol-3-one] showed an EC50 of 21.6 nM. Work on `O=c1n(C23CC(F)(C2)C3)nc2n1[C@H](c1cc(F)cc(F)c1)CC2` [Compound 1-2, (5S)-5-(3,5-difluorophenyl)-2-(3-fluorobicyclo[1.1.1]pentan-1-yl)-2,5,6,7-tetrahydro-3H-pyrrolo[2,1-c][1,2,4]triazol-3-one] yielded an EC50 of 22.8 nM. `O=c1n(C23CCC(F)(CC2)C3)nc2n1[C@H](c1cc(F)cc(F)c1)CC2` [Compound 1-3, (5S)-5-(3,5-difluorophenyl)-2-(4-fluorobicyclo[2.2.1]heptan-1-yl)-2,5,6,7-tetrahydro-3H-pyrrolo[2,1-c][1,2,4]triazol-3-one] gave an EC50 of 34.8 nM. Work on `O=c1n(C23CCC(C2)C3)nc2n1[C@H](c1cc(F)cc(F)c1)CC2` [Compound 1-4, (5S)-2-(bicyclo[2.1.1]hexan-1-yl)-5-(3,5-difluorophenyl)-2,5,6,7-tetrahydro-3H-pyrrolo[2,1-c][1,2,4]triazol-3-one] yielded an EC50 of 31.1 nM. `N#CC12CC(n3nc4n(c3=O)[C@H](c3cc(F)cc(F)c3)CC4)(C1)C2` [Compound 1-5, 3-[(5S)-5-(3,5-difluorophenyl)-3-oxo-6,7-dihydro-3H-pyrrolo[2,1-c][1,2,4]triazol-2(5H)-yl]bicyclo[1.1.1]pentane-1-carbonitrile] was tested, and the EC50 was 14.8 nM. With `O=c1n(C23CC(F)(C2)C3)nc2n1[C@H](c1ccccc1)CC2` [Compound 1-6, (5S)-2-(3-fluorobicyclo[1.1.1]pentan-1-yl)-5-phenyl-2,5,6,7-tetrahydro-3H-pyrrolo[2,1-c][1,2,4]triazol-3-one] the EC50 was 51.2 nM. `O=c1n(C23CC(C2)C3)nc2n1[C@H](c1cc(F)cc(F)c1)CC2` [Compound 1-7, (5S)-2-(bicyclo[1.1.1]pentan-1-yl)-5-(3,5-difluorophenyl)-2,5,6,7-tetrahydro-3H-pyrrolo[2,1-c][1,2,4]triazol-3-one] showed an EC50 of 98.4 nM.
